In patent US9650399B2, “Salicylic acid derivatives, pharmaceutically acceptable salt thereof, composition thereof and method of use thereof” (The Governing Council of the University of Toronto, priority 2012, dated 2017):

Legend:
Format in all cases: cell-based, human
BTSC68EF = assay: alamarBlue cell viability, BTSC 68EF; conditions: Table 4 library screen, alamarBlue; for IC50: Homo sapiens, read-out: 68EF IC50
Procedure: (§1) First, the library was screened for biological activity against a set of three representative GBM BTSCs derived from GBM patients, including the very aggressive GBM BTSC lines, BTSC73M, BTSC30M, BTSC68EF. Dissociated BTSC spheres were seeded at 1500 cells/96-well and treated with drug compound or vehicle (DMSO) one day after plating. Cell viability following drug treatment was assessed after 72 hrs using the ALAMARBLUE™ assay (Invitrogen) according to the manufacturer's instructions. All culture experiments were performed in triplicate with a minimum of three wells per condition.
(§2) BTSC spheres were dissociated to single cells with the enzyme Accumax (Innovative Technologies), seeded at 1500 cells/96-well and treated with drug or vehicle (DMSO) one day after plating. […] BTSC spheres were dissociated to single cells as above and plated in 96 well plates in triplicate at 3000 cells/96-well. […] Cell viability following drug treatment was assessed three days later using the ALAMARBLUE™ assay (Invitrogen) according to the manufacturer's instructions. All culture experiments were performed in triplicate with a minimum of three wells per condition.

BTSC73M = assay: alamarBlue cell viability, BTSC 73M; conditions: Table 4 library screen, alamarBlue; for IC50: Homo sapiens, read-out: 73M IC50
Procedure: as §1, §2

BTSC30M = assay: alamarBlue cell viability, BTSC 30M; conditions: Table 4 library screen, alamarBlue; for IC50: Homo sapiens, read-out: 30M IC50 (μM)
Procedure: as §1, §2

147EF = assay: alamarBlue cell viability, BTSC 147EF; conditions: Table 4 library screen; for IC50: Homo sapiens
From the text: BTSC spheres were dissociated to single cells with the enzyme Accumax (Innovative Technologies), seeded at 1500 cells/96-well and treated with drug or vehicle (DMSO) one day after plating. Cytotoxicity studies were repeated independently at Sickkids Hospital using BTSC lines 25M, 67EF, 73EF, 84EF and 127EF. BTSC spheres were dissociated to single cells as above and plated in 96 well plates in triplicate at 3000 cells/96-well. In both sets of experiments drugs were used as serial dilutions within the range of 5 μM to 100 nM in the first set and 25 μM to 10 nM. Cell viability following drug treatment was assessed three days later using the ALAMARBLUE™ assay (Invitrogen) according to the manufacturer's instructions. All culture experiments were performed in triplicate with a minimum of three wells per condition. Table 4 below illustrates a screen of the library against a number of BTSCs using ALAMARBLUE™ assay.

## CCOC(=O)C(=O)Nc1ccc(N(Cc2ccc(C3CCCCC3)cc2)C(=O)CN(C)S(=O)(=O)c2c(F)c(F)c(F)c(F)c2F)cc1 [Compound 17, ethyl 2-((4-(N-(4-cyclohexylbenzyl)-2-(2,3,4,5,6-pentafluoro-N-methylphenylsulfonamido)acetamido)phenyl)amino)-2-oxoacetate]
BTSC68EF
  IC50: 631 nM
BTSC73M
  IC50: 1240 nM
BTSC30M
  IC50: 0.694 µM

## CN(CC(=O)N(Cc1ccc(C2CCCCC2)cc1)c1ccc([N+](=O)[O-])cc1)S(=O)(=O)c1c(F)c(F)c(F)c(F)c1F [Compound 8, N-(4-cyclohexylbenzyl)-N-(4-nitrophenyl)-2-(2,3,4,5,6-pentafluoro-N-methylphenylsulfonamido)acetamide]
147EF
  IC50: 669 nM
BTSC68EF
  IC50: 590 nM
BTSC73M
  IC50: 1100 nM
BTSC30M
  IC50: 0.522 µM

## Cc1ccc(S(=O)(=O)N(C)CC(=O)N(Cc2ccc(C3CCCCC3)cc2)c2ccc([N+](=O)[O-])cc2)cc1 [Compound 9, N-(4-cyclohexylbenzyl)-2-(N,4-dimethylphenylsulfonamido)-N-(4-nitrophenyl)acetamide]
147EF
  147EF IC50 (μM): no effect
BTSC68EF
  68EF IC50 (μM): no effect
BTSC73M
  73M IC50 (μM): no effect
BTSC30M
  30M IC50 (μM): no effect

## CN(CC(=O)N(Cc1ccc(C2CCCCC2)cc1)c1ccc(NS(C)(=O)=O)cc1)S(=O)(=O)c1c(F)c(F)c(F)c(F)c1F [Compound 14, N-(4-cyclohexylbenzyl)-N-(4-(methylsulfonamido)phenyl)-2-(2,3,4,5,6-pentafluoro-N-methylphenylsulfonamido)acetamide]
BTSC68EF
  IC50: 806 nM
BTSC73M
  IC50: 1810 nM
BTSC30M
  IC50: 0.718 µM

## CCOC(=O)c1ccc(N(Cc2ccc(C3CCCCC3)cc2)C(=O)CN(C)S(=O)(=O)c2c(F)c(F)c(F)c(F)c2F)cc1 [Compound 40, ethyl 4-(N-(4-cyclohexylbenzyl)-2-(2,3,4,5,6-pentafluoro-N-methylphenylsulfonamido)acetamido)benzoate]
BTSC73M
  73M IC50 (μM): no effect

## Cc1ccc(S(=O)(=O)N(C)CC(=O)N(Cc2ccc(C3CCCCC3)cc2)c2ccc(N)cc2)cc1 [Compound 11, N-(4-aminophenyl)-N-(4-cyclohexylbenzyl)-2-(N,4-dimethylphenylsulfonamido)acetamide]
147EF
  147EF IC50 (μM): no effect
BTSC68EF
  68EF IC50 (μM): no effect
BTSC73M
  73M IC50 (μM): no effect
BTSC30M
  30M IC50 (μM): no effect

## CN(CC(=O)N(Cc1ccc(C2CCCCC2)cc1)c1cc(C(=O)O)cc(C(=O)O)c1)S(=O)(=O)c1c(F)c(F)c(F)c(F)c1F [Compound 37, 5-(N-(4-cyclohexylbenzyl)-2-(2,3,4,5,6-pentafluoro-N-methylphenylsulfonamido)acetamido)isophthalic acid]
BTSC73M
  73M IC50 (μM): no effect
BTSC30M
  30M IC50 (μM): no effect

## CN(CC(=O)N(Cc1ccc(C2CCCCC2)cc1)c1cccc(O)c1)S(=O)(=O)c1c(F)c(F)c(F)c(F)c1F [Compound 30, N-(4-cyclohexylbenzyl)-N-(3-hydroxyphenyl)-2-(2,3,4,5,6-pentafluoro-N-methylphenylsulfonamido)acetamide]
BTSC73M
  IC50: 2840 nM
BTSC30M
  IC50: 0.776 µM

## Cc1ccc(S(=O)(=O)N(C)CC(=O)N(Cc2ccc(C3CCCCC3)cc2)c2ccc(NC(=O)C(=O)O)cc2)cc1 [Compound 46, 2-((4-(N-(4-cyclohexylbenzyl)-2-(N,4-dimethylphenylsulfonamido)acetamido)phenyl)amino)-2-oxoacetic acid]
147EF
  147EF IC50 (μM): no effect
BTSC73M
  73M IC50 (μM): no effect
BTSC30M
  30M IC50 (μM): no effect

## COC(=O)c1ccc(N(Cc2ccc(C3CCCCC3)cc2)C(=O)CN(C)S(=O)(=O)c2c(F)c(F)c(F)c(F)c2F)cc1 [Compound 39, methyl 4-(N-(4-cyclohexylbenzyl)-2-(2,3,4,5,6-pentafluoro-N-methylphenylsulfonamido)acetamido)benzoate]
BTSC68EF
  IC50: 607 nM
BTSC73M
  IC50: 3320 nM
BTSC30M
  IC50: 1.09 µM

## CN(CC(=O)N(Cc1ccc(C2CCCCC2)cc1)c1ccc(C#N)cc1)S(=O)(=O)c1c(F)c(F)c(F)c(F)c1F [Compound 34, N-(4-cyanophenyl)-N-(4-cyclohexylbenzyl)-2-(2,3,4,5,6-pentafluoro-N-methylphenylsulfonamido)acetamide]
BTSC73M
  73M IC50 (μM): no effect
BTSC30M
  IC50: 2.23 µM

## CCOP(=O)(Cc1ccc(N(Cc2ccc(C3CCCCC3)cc2)C(=O)CN(C)S(=O)(=O)c2c(F)c(F)c(F)c(F)c2F)cc1)OCC [Compound 20, diethyl 4-(N-(4-cyclohexylbenzyl)-2-(2,3,4,5,6-pentafluoro-N-methylphenylsulfonamido)acetamido)benzylphosphonate]
BTSC68EF
  68EF IC50 (μM): no effect
BTSC73M
  IC50: 1820 nM
BTSC30M
  IC50: 0.664 µM

## CCOC(=O)C(=O)Nc1ccc(N(Cc2ccc(C3CCCCC3)cc2)C(=O)CN(C)S(=O)(=O)c2ccc(C)cc2)cc1 [Compound 18, ethyl 2-((4-(N-(4-cyclohexylbenzyl)-2-(N,4-dimethylphenylsulfonamido)acetamido)phenyl)amino)-2-oxoacetate]
147EF
  IC50: 3580 nM
BTSC73M
  73M IC50 (μM): no effect
BTSC30M
  30M IC50 (μM): no effect

## CC(=O)OCOC(=O)c1ccc(N(Cc2ccc(C3CCCCC3)cc2)C(=O)CN(C)S(=O)(=O)c2c(F)c(F)c(F)c(F)c2F)cc1 [Compound 26, acetoxymethyl 4-(N-(4-cyclohexylbenzyl)-2-(2,3,4,5,6-pentafluoro-N-methylphenylsulfonamido)acetamido)benzoate]
BTSC73M
  IC50: 4340 nM
BTSC30M
  IC50: 1.95 µM

## CN(CC(=O)N(Cc1ccc(C2CCCCC2)cc1)c1ccc(NS(N)(=O)=O)cc1)S(=O)(=O)c1c(F)c(F)c(F)c(F)c1F [Compound 16, N-(4-cyclohexylbenzyl)-2-(2,3,4,5,6-pentafluoro-N-methylphenylsulfonamido)-N-(4-(sulfamoylamino)phenyl)acetamide]
BTSC68EF
  IC50: 839 nM
BTSC73M
  IC50: 2040 nM
BTSC30M
  IC50: 0.95 µM

## CN(CC(=O)N(Cc1ccc(C2CCCCC2)cc1)c1ccc(CP(=O)(O)O)cc1)S(=O)(=O)c1c(F)c(F)c(F)c(F)c1F [Compound 21, (4-(N-(4-cyclohexylbenzyl)-2-(2,3,4,5,6-pentafluoro-N-methylphenylsulfonamido)acetamido)benzyl)phosphonic acid]
BTSC73M
  73M IC50 (μM): no effect

## CN(CC(=O)N(Cc1ccc(C2CCCCC2)cc1)c1ccc(O)cc1)S(=O)(=O)c1c(F)c(F)c(F)c(F)c1F [Compound 29, N-(4-cyclohexylbenzyl)-N-(4-hydroxphenyl)-2-(2,3,4,5,6-pentafluoro-N-methylphenylsulfonamido)acetamide]
BTSC68EF
  IC50: 1090 nM
BTSC30M
  IC50: 0.941 µM

## CN(CC(=O)N(Cc1ccc(C2CCCCC2)cc1)c1ccc(NC(=O)C(=O)O)cc1)S(=O)(=O)c1c(F)c(F)c(F)c(F)c1F [Compound 28, 2-((4-(N-(4-cyclohexylbenzyl)-2-(2,3,4,5,6-pentafluoro-N-methylphenylsulfonamido)acetamido)phenyl)amino)-2-oxoacetic acid]
147EF
  147EF IC50 (μM): no effect
BTSC73M
  73M IC50 (μM): no effect
BTSC30M
  30M IC50 (μM): no effect

## CN(CC(=O)N(Cc1ccc(C2CCCCC2)cc1)c1ccc(NS(=O)(=O)c2ccc3ccccc3c2)cc1)S(=O)(=O)c1c(F)c(F)c(F)c(F)c1F [Compound 12, N-(4-cyclohexylbenzyl)-N-(4-(naphthalene-2-sulfonamido)phenyl)-2-(2,3,4,5,6-pentafluoro-N-methylphenylsulfonamido)acetamide]
BTSC73M
  73M IC50 (μM): no effect
BTSC30M
  30M IC50 (μM): no effect

## CN(CC(=O)N(Cc1ccc(C2CCCCC2)cc1)c1ccc(-c2nnn[nH]2)cc1)S(=O)(=O)c1c(F)c(F)c(F)c(F)c1F [Compound 35, N-(4-(1H-tetrazol-5-yl)phenyl)-N-(4-cyclohexylbenzyl)-2-(2,3,4,5,6-pentafluoro-N-methylphenylsulfonamido)acetamide]
BTSC68EF
  68EF IC50 (μM): no effect
BTSC73M
  IC50: 2770 nM
BTSC30M
  30M IC50 (μM): no effect

## CN(CC(=O)N(Cc1ccc(C2CCCCC2)cc1)c1ccc(NS(=O)(=O)c2ccc3ncccc3c2)cc1)S(=O)(=O)c1c(F)c(F)c(F)c(F)c1F [Compound 13, N-(4-cyclohexylbenzyl)-2-(2,3,4,5,6-pentafluoro-N-methylphenylsulfonamido)-N-(4-(quinoline-6-sulfonamido)phenyl)acetamide]
BTSC73M
  73M IC50 (μM): no effect
BTSC30M
  30M IC50 (μM): no effect

## CN(CC(=O)N(Cc1ccc(C2CCCCC2)cc1)c1ccc(NS(=O)(=O)c2cncn2C)cc1)S(=O)(=O)c1c(F)c(F)c(F)c(F)c1F [Compound 15, N-(4-cyclohexylbenzyl)-N-(4-(1-methyl-1H-imidazole-5-sulfonamido)phenyl)-2-(2,3,4,5,6-pentafluoro-N-methylphenylsulfonamido)acetamide]
BTSC30M
  IC50: 0.607 µM
